Measured values published in patent US8222270B2 (Medicis Pharmaceutical Corporation, priority 2008, dated 2012).

Experiment: Stability of calibration standards in spent receiver fluid
Assay type: physicochemical
Conditions: vs T = 0

Which “48 h % recovered in Spent receiver fluid” value (Standard 5.275 μg/ml, Epidermal sheet + placebo, 37° C.) does the source give for CC(C)Cn1cnc2c(N)nc3ccccc3c21 [imiquimod, 1-(2-methylpropyl)-1H-imidazo[4,5-c]quinolin-4-amine] here?
Its value is 86.828%.

What about the “48 h % recovered in Spent receiver fluid” value (Standard 5.275 μg/ml, Epidermal sheet + placebo, Fridge) of the same compound?
Its value is 88.881%.

And the “48 h % recovered in Spent receiver fluid” value (Standard 5.275 μg/ml, Epidermal sheet + placebo, RT)?
Its value is 86.540%.

And the “48 h % recovered in Spent receiver fluid” value (Standard 5.275 μg/ml, Epidermal sheet, 37° C.)?
The value was 85.995%.

And the “48 h % recovered in Spent receiver fluid” value (Standard 5.275 μg/ml, Epidermal sheet, Fridge)?
Its value is 88.938%.

And the “48 h % recovered in Spent receiver fluid” value (Standard 5.275 μg/ml, Epidermal sheet, RT)?
Its value is 91.447%.

And the “48 h % recovered in Spent receiver fluid” value (Standard 5.275 μg/ml, Full thickness + placebo, 37° C.)?
Its value is 86.134%.

And the “48 h % recovered in Spent receiver fluid” value (Standard 5.275 μg/ml, Full thickness + placebo, Fridge)?
Its value is 90.260%.

And the “48 h % recovered in Spent receiver fluid” value (Standard 5.275 μg/ml, Full thickness + placebo, RT)?
Its value is 87.973%.

What about the “48 h % recovered in Spent receiver fluid” value (Standard 5.275 μg/ml, Full thickness, 37° C.) of the same compound?
The value was 90.611%.

And the “48 h % recovered in Spent receiver fluid” value (Standard 5.275 μg/ml, Full thickness, Fridge)?
The value was 94.586%.

And the “48 h % recovered in Spent receiver fluid” value (Standard 5.275 μg/ml, Full thickness, RT)?
Its value is 95.232%.

What about the “48 h % recovered in Spent receiver fluid” value (Standard 42.2 μg/ml, Epidermal sheet + placebo, 37° C.) of the same compound?
Its value is 95.095%.

What about the “48 h % recovered in Spent receiver fluid” value (Standard 42.2 μg/ml, Epidermal sheet + placebo, Fridge) of the same compound?
Its value is 93.077%.

What about the “48 h % recovered in Spent receiver fluid” value (Standard 42.2 μg/ml, Epidermal sheet + placebo, RT) of the same compound?
Its value is 92.904%.

What about the “48 h % recovered in Spent receiver fluid” value (Standard 42.2 μg/ml, Epidermal sheet, 37° C.) of the same compound?
The value was 89.641%.

And the “48 h % recovered in Spent receiver fluid” value (Standard 42.2 μg/ml, Epidermal sheet, Fridge)?
The value was 85.716%.

And the “48 h % recovered in Spent receiver fluid” value (Standard 42.2 μg/ml, Epidermal sheet, RT)?
The value was 86.340%.

And the “48 h % recovered in Spent receiver fluid” value (Standard 42.2 μg/ml, Full thickness + placebo, 37° C.)?
The value was 86.439%.

What about the “48 h % recovered in Spent receiver fluid” value (Standard 42.2 μg/ml, Full thickness + placebo, Fridge) of the same compound?
The value was 83.976%.

What about the “48 h % recovered in Spent receiver fluid” value (Standard 42.2 μg/ml, Full thickness + placebo, RT) of the same compound?
The value was 84.144%.

And the “48 h % recovered in Spent receiver fluid” value (Standard 42.2 μg/ml, Full thickness, 37° C.)?
The value was 95.939%.

What about the “48 h % recovered in Spent receiver fluid” value (Standard 42.2 μg/ml, Full thickness, Fridge) of the same compound?
Its value is 95.103%.

And the “48 h % recovered in Spent receiver fluid” value (Standard 42.2 μg/ml, Full thickness, RT)?
The value was 95.805%.

And the “48 h % recovered in Spent receiver fluid” value (Standard 52.75 μg/ml, Epidermal sheet + placebo, 37° C.)?
The value was 86.906%.

What about the “48 h % recovered in Spent receiver fluid” value (Standard 52.75 μg/ml, Epidermal sheet + placebo, Fridge) of the same compound?
Its value is 85.635%.

What about the “48 h % recovered in Spent receiver fluid” value (Standard 52.75 μg/ml, Epidermal sheet + placebo, RT) of the same compound?
Its value is 88.169%.

What about the “48 h % recovered in Spent receiver fluid” value (Standard 52.75 μg/ml, Epidermal sheet, 37° C.) of the same compound?
Its value is 90.943%.

And the “48 h % recovered in Spent receiver fluid” value (Standard 52.75 μg/ml, Epidermal sheet, Fridge)?
Its value is 87.669%.

What about the “48 h % recovered in Spent receiver fluid” value (Standard 52.75 μg/ml, Epidermal sheet, RT) of the same compound?
Its value is 89.096%.

And the “48 h % recovered in Spent receiver fluid” value (Standard 52.75 μg/ml, Full thickness + placebo, 37° C.)?
The value was 93.779%.

What about the “48 h % recovered in Spent receiver fluid” value (Standard 52.75 μg/ml, Full thickness + placebo, Fridge) of the same compound?
Its value is 91.776%.

And the “48 h % recovered in Spent receiver fluid” value (Standard 52.75 μg/ml, Full thickness + placebo, RT)?
The value was 92.027%.

And the “48 h % recovered in Spent receiver fluid” value (Standard 52.75 μg/ml, Full thickness, 37° C.)?
The value was 95.282%.

And the “48 h % recovered in Spent receiver fluid” value (Standard 52.75 μg/ml, Full thickness, Fridge)?
The value was 92.317%.

And the “48 h % recovered in Spent receiver fluid” value (Standard 52.75 μg/ml, Full thickness, RT)?
The value was 92.152%.

What about the “48 h % recovered in Spent receiver fluid” value (Standard 84.4 μg/ml, Epidermal sheet + placebo, 37° C.) of the same compound?
Its value is 98.178%.

What about the “48 h % recovered in Spent receiver fluid” value (Standard 84.4 μg/ml, Epidermal sheet + placebo, Fridge) of the same compound?
The value was 95.620%.

And the “48 h % recovered in Spent receiver fluid” value (Standard 84.4 μg/ml, Epidermal sheet + placebo, RT)?
Its value is 96.033%.

And the “48 h % recovered in Spent receiver fluid” value (Standard 84.4 μg/ml, Epidermal sheet, 37° C.)?
Its value is 82.694%.

And the “48 h % recovered in Spent receiver fluid” value (Standard 84.4 μg/ml, Epidermal sheet, Fridge)?
The value was 81.350%.

And the “48 h % recovered in Spent receiver fluid” value (Standard 84.4 μg/ml, Epidermal sheet, RT)?
Its value is 82.276%.

And the “48 h % recovered in Spent receiver fluid” value (Standard 84.4 μg/ml, Full thickness + placebo, 37° C.)?
The value was 85.629%.

What about the “48 h % recovered in Spent receiver fluid” value (Standard 84.4 μg/ml, Full thickness + placebo, Fridge) of the same compound?
The value was 84.561%.

And the “48 h % recovered in Spent receiver fluid” value (Standard 84.4 μg/ml, Full thickness + placebo, RT)?
Its value is 84.421%.

What about the “48 h % recovered in Spent receiver fluid” value (Standard 84.4 μg/ml, Full thickness, 37° C.) of the same compound?
The value was 101.010%.

And the “48 h % recovered in Spent receiver fluid” value (Standard 84.4 μg/ml, Full thickness, Fridge)?
Its value is 98.841%.

What about the “48 h % recovered in Spent receiver fluid” value (Standard 84.4 μg/ml, Full thickness, RT) of the same compound?
Its value is 99.790%.

What about the “48 h % recovered in Spent receiver fluid” value (Standard 105.5 μg/ml, Epidermal sheet + placebo, 37° C.) of the same compound?
Its value is 84.903%.

What about the “48 h % recovered in Spent receiver fluid” value (Standard 105.5 μg/ml, Epidermal sheet + placebo, Fridge) of the same compound?
Its value is 83.833%.

And the “48 h % recovered in Spent receiver fluid” value (Standard 105.5 μg/ml, Epidermal sheet + placebo, RT)?
The value was 84.515%.

What about the “48 h % recovered in Spent receiver fluid” value (Standard 105.5 μg/ml, Epidermal sheet, 37° C.) of the same compound?
The value was 91.501%.

What about the “48 h % recovered in Spent receiver fluid” value (Standard 105.5 μg/ml, Epidermal sheet, Fridge) of the same compound?
The value was 90.465%.

And the “48 h % recovered in Spent receiver fluid” value (Standard 105.5 μg/ml, Epidermal sheet, RT)?
The value was 92.089%.

And the “48 h % recovered in Spent receiver fluid” value (Standard 105.5 μg/ml, Full thickness + placebo, 37° C.)?
Its value is 91.704%.

What about the “48 h % recovered in Spent receiver fluid” value (Standard 105.5 μg/ml, Full thickness + placebo, Fridge) of the same compound?
Its value is 88.242%.

What about the “48 h % recovered in Spent receiver fluid” value (Standard 105.5 μg/ml, Full thickness + placebo, RT) of the same compound?
The value was 88.546%.

What about the “48 h % recovered in Spent receiver fluid” value (Standard 105.5 μg/ml, Full thickness, 37° C.) of the same compound?
Its value is 92.278%.

And the “48 h % recovered in Spent receiver fluid” value (Standard 105.5 μg/ml, Full thickness, Fridge)?
Its value is 90.545%.

And the “48 h % recovered in Spent receiver fluid” value (Standard 105.5 μg/ml, Full thickness, RT)?
Its value is 92.275%.

And the “48 h % recovered in Spent receiver fluid” value (Standard […] μg/ml, Epidermal sheet + placebo, 37° C.)?
Its value is 89.945%.

What about the “48 h % recovered in Spent receiver fluid” value (Standard […] μg/ml, Epidermal sheet + placebo, Fridge) of the same compound?
The value was 84.046%.

What about the “48 h % recovered in Spent receiver fluid” value (Standard […] μg/ml, Epidermal sheet + placebo, RT) of the same compound?
Its value is 85.095%.

What about the “48 h % recovered in Spent receiver fluid” value (Standard […] μg/ml, Epidermal sheet, 37° C.) of the same compound?
Its value is 97.099%.

And the “48 h % recovered in Spent receiver fluid” value (Standard […] μg/ml, Epidermal sheet, Fridge)?
The value was 93.180%.

And the “48 h % recovered in Spent receiver fluid” value (Standard […] μg/ml, Epidermal sheet, RT)?
Its value is 94.971%.

What about the “48 h % recovered in Spent receiver fluid” value (Standard […] μg/ml, Full thickness + placebo, 37° C.) of the same compound?
The value was 90.798%.

What about the “48 h % recovered in Spent receiver fluid” value (Standard […] μg/ml, Full thickness + placebo, Fridge) of the same compound?
Its value is 88.307%.

And the “48 h % recovered in Spent receiver fluid” value (Standard […] μg/ml, Full thickness + placebo, RT)?
The value was 86.897%.

And the “48 h % recovered in Spent receiver fluid” value (Standard […] μg/ml, Full thickness, 37° C.)?
The value was 97.826%.

And the “48 h % recovered in Spent receiver fluid” value (Standard […] μg/ml, Full thickness, Fridge)?
The value was 94.989%.

What about the “48 h % recovered in Spent receiver fluid” value (Standard […] μg/ml, Full thickness, RT) of the same compound?
Its value is 93.522%.
